Source: PubChem BioAssay (NCI)
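1) Cells in 96-well plates. 2) Compound, 48 h, 5 concentrations. 3) Linear interpolation between surrounding doses. 4) Unreached endpoint = highest concentration. The concentration for 50% growth inhibition is given as GI50. At the TGI there is no net growth.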

Key:
Assay in all cases: inhibition of tumour cell growth, NCI panel, 48 h
HL-60(TB) leukemia = tested on: HL-60(TB) leukemia
UACC-62 melanoma = tested on: UACC-62 melanoma
A498 renal = tested on: A498 renal
A549 NSCLC = tested on: A549 NSCLC
OVCAR-5 ovarian = tested on: OVCAR-5 ovarian
SF-539 CNS = tested on: SF-539 CNS
K-562 leukemia = tested on: K-562 leukemia
MALME-3M melanoma = tested on: MALME-3M melanoma
HOP-62 NSCLC = tested on: HOP-62 NSCLC
MDA-MB-435 = tested on: MDA-MB-435

## COc1ccc(NC(=O)CC(=O)n2nc(C)c(N=Nc3ccccc3C(=O)O)c2C)cc1
HL-60(TB) leukemia
  TGI: > 100 µM
UACC-62 melanoma
  TGI: > 100 µM
A498 renal
  TGI: > 100 µM
A549 NSCLC
  TGI: > 100 µM
OVCAR-5 ovarian
  TGI: > 100 µM
SF-539 CNS
  TGI: > 100 µM
K-562 leukemia
  TGI: > 100 µM
MALME-3M melanoma
  TGI: > 100 µM
HOP-62 NSCLC
  TGI: > 100 µM

## Cn1cc(C(=O)c2ccccc2)cc(C(=O)c2ccccc2)c1=O
HL-60(TB) leukemia
  TGI: > 100 µM
UACC-62 melanoma
  TGI: > 100 µM
A549 NSCLC
  TGI: > 100 µM
OVCAR-5 ovarian
  TGI: > 100 µM
SF-539 CNS
  TGI: > 100 µM
K-562 leukemia
  TGI: > 100 µM
MALME-3M melanoma
  TGI: > 100 µM
HOP-62 NSCLC
  TGI: > 100 µM

## O=[N+]([O-])c1cc2no[n+]([O-])c2cc1N1CCCCC1
HL-60(TB) leukemia
  TGI: 5.29 µM
UACC-62 melanoma
  TGI: 33.8 µM
A498 renal
  TGI: 35.2 µM
A549 NSCLC
  TGI: 42.8 µM
OVCAR-5 ovarian
  TGI: 24.8 µM
SF-539 CNS
  TGI: > 20.1 µM
MDA-MB-435
  TGI: 9.44 µM
K-562 leukemia
  TGI: 7.98 µM
HOP-62 NSCLC
  TGI: 31.3 µM

## COc1cccc(SSc2cccc(OC)c2C(=O)O)c1C(=O)O
HL-60(TB) leukemia
  TGI: > 100 µM
UACC-62 melanoma
  TGI: > 100 µM
A498 renal
  TGI: > 100 µM
A549 NSCLC
  TGI: > 100 µM
OVCAR-5 ovarian
  TGI: > 100 µM
SF-539 CNS
  TGI: > 100 µM
K-562 leukemia
  TGI: > 100 µM
MALME-3M melanoma
  TGI: > 100 µM
HOP-62 NSCLC
  TGI: > 100 µM

## COc1cc2ccnc3c(=C(SC)SC)c(=O)c(c1OC)c23
HL-60(TB) leukemia
  TGI: 5.04 µM
UACC-62 melanoma
  TGI: 37.9 µM
A549 NSCLC
  TGI: > 100 µM
OVCAR-5 ovarian
  TGI: 35.9 µM
SF-539 CNS
  TGI: 33 µM
K-562 leukemia
  TGI: 16.3 µM
MALME-3M melanoma
  TGI: 24.7 µM
HOP-62 NSCLC
  TGI: > 100 µM

## Cc1nc2ccccc2nc1N=Nc1ccccc1
HL-60(TB) leukemia
  GI50: 20.6 µM
  TGI: 56.6 µM
UACC-62 melanoma
  GI50: 14.2 µM
  TGI: 35.2 µM
A549 NSCLC
  GI50: 37.3 µM
  TGI: > 100 µM
OVCAR-5 ovarian
  GI50: 75.7 µM
  TGI: > 100 µM
SF-539 CNS
  GI50: 27.9 µM
  TGI: > 100 µM
MDA-MB-435
  GI50: 18.3 µM
  TGI: 48.8 µM
K-562 leukemia
  GI50: 25.7 µM
  TGI: > 100 µM
MALME-3M melanoma
  GI50: 20.8 µM
  TGI: 65.7 µM
HOP-62 NSCLC
  GI50: 28.5 µM
  TGI: > 100 µM

## CC(=O)c1ccc(NC(=O)COC(=O)c2cccc3c(=O)c4ccccc4[nH]c23)cc1
HL-60(TB) leukemia
  TGI: > 100 µM
UACC-62 melanoma
  TGI: > 100 µM
A498 renal
  TGI: > 100 µM
A549 NSCLC
  TGI: > 100 µM
SF-539 CNS
  TGI: 33.9 µM
K-562 leukemia
  TGI: > 100 µM
MALME-3M melanoma
  TGI: > 100 µM
HOP-62 NSCLC
  TGI: 90.7 µM

## O=C1OC(=O)C2C3C=CC(C12)C1C2C=CC2C31 (configuration not stated)
HL-60(TB) leukemia
  TGI: > 100 µM
A498 renal
  TGI: > 100 µM
A549 NSCLC
  TGI: > 100 µM
OVCAR-5 ovarian
  TGI: > 100 µM
SF-539 CNS
  TGI: > 100 µM
K-562 leukemia
  TGI: > 100 µM
MALME-3M melanoma
  TGI: > 100 µM
HOP-62 NSCLC
  TGI: > 100 µM

## COc1ccc(-c2csc(NC(=O)CN3CCN(c4cc5c(cc4F)c(=O)c(C(=O)O)cn5C4CC4)CC3)n2)cc1
UACC-62 melanoma
  GI50: 4.18 µM
  TGI: > 100 µM
A549 NSCLC
  GI50: 3.47 µM
  TGI: > 100 µM
SF-539 CNS
  GI50: 3.61 µM
  TGI: > 100 µM
MDA-MB-435
  GI50: 3.39 µM
  TGI: > 100 µM
MALME-3M melanoma
  GI50: 2.37 µM
  TGI: 7.49 µM
HOP-62 NSCLC
  GI50: 3.59 µM
  TGI: 26.1 µM

## O=c1cccc(-c2cccc(=O)[nH]2)[nH]1
HL-60(TB) leukemia
  TGI: > 100 µM
UACC-62 melanoma
  TGI: > 100 µM
A549 NSCLC
  TGI: > 100 µM
SF-539 CNS
  TGI: > 100 µM
K-562 leukemia
  TGI: > 100 µM
MALME-3M melanoma
  TGI: > 100 µM

## Cl.Fc1c[c-]c(-c2ccccn2)c(F)c1.[Pt].c1ccc([PH+](C[PH+](c2ccccc2)c2ccccc2)c2ccccc2)cc1
HL-60(TB) leukemia
  GI50: 0.233 µM
  TGI: 0.67 µM
UACC-62 melanoma
  GI50: 0.199 µM
  TGI: 0.511 µM
A498 renal
  GI50: 0.239 µM
  TGI: 0.721 µM
A549 NSCLC
  GI50: 0.206 µM
  TGI: 1.34 µM
OVCAR-5 ovarian
  GI50: 0.324 µM
  TGI: 1.18 µM
SF-539 CNS
  GI50: 0.244 µM
  TGI: 0.677 µM
MDA-MB-435
  GI50: 0.233 µM
  TGI: 0.574 µM
K-562 leukemia
  GI50: 0.0483 µM
  TGI: 0.573 µM

## Cc1nc2cc(Nc3nc(Nc4ccc(F)cc4)nc(N4CCOCC4)n3)ccc2n1Cc1ccccc1
HL-60(TB) leukemia
  GI50: 2.07 µM
  TGI: 4.73 µM
A498 renal
  GI50: 1.3 µM
  TGI: 4.57 µM
A549 NSCLC
  GI50: 3.2 µM
  TGI: 14.2 µM
OVCAR-5 ovarian
  GI50: 12.3 µM
  TGI: 28.6 µM
SF-539 CNS
  GI50: 3.54 µM
  TGI: 14.5 µM
MDA-MB-435
  GI50: 3.95 µM
  TGI: 15.9 µM
K-562 leukemia
  GI50: 2.94 µM
  TGI: 11.7 µM
HOP-62 NSCLC
  GI50: 9.06 µM
  TGI: 24 µM

## CCN1C(=NCCO)NS(=O)(=O)c2ccccc21
HL-60(TB) leukemia
  TGI: > 100 µM
UACC-62 melanoma
  TGI: > 100 µM
A498 renal
  TGI: > 100 µM
A549 NSCLC
  TGI: > 100 µM
OVCAR-5 ovarian
  TGI: > 100 µM
SF-539 CNS
  TGI: > 100 µM
MDA-MB-435
  TGI: > 100 µM
K-562 leukemia
  TGI: > 100 µM
HOP-62 NSCLC
  TGI: > 100 µM

## Cc1ccc(S(=O)(=O)N/N=C/C(C)C)cc1
HL-60(TB) leukemia
  TGI: > 100 µM
UACC-62 melanoma
  TGI: > 100 µM
A498 renal
  TGI: > 100 µM
A549 NSCLC
  TGI: > 100 µM
OVCAR-5 ovarian
  TGI: > 100 µM
SF-539 CNS
  TGI: > 100 µM
K-562 leukemia
  TGI: > 100 µM
MALME-3M melanoma
  TGI: > 100 µM
HOP-62 NSCLC
  TGI: > 100 µM

## O=C1c2cccnc2C(=O)c2c1c(C(=O)OCCCN1CCCCC1)c1ccccn21
HL-60(TB) leukemia
  GI50: 0.122 µM
  TGI: 7.5 µM
UACC-62 melanoma
  GI50: < 0.01 µM
  TGI: 0.0478 µM
A549 NSCLC
  GI50: < 0.01 µM
  TGI: < 0.0182 µM
OVCAR-5 ovarian
  GI50: 0.0344 µM
  TGI: 1.83 µM
SF-539 CNS
  GI50: < 0.0106 µM
  TGI: 0.0435 µM
MDA-MB-435
  GI50: 0.0142 µM
  TGI: 0.0417 µM
K-562 leukemia
  GI50: < 0.0144 µM
MALME-3M melanoma
  GI50: < 0.0158 µM
  TGI: 0.0682 µM
HOP-62 NSCLC
  GI50: < 0.01 µM
  TGI: 0.0203 µM

## N#CC1=C(O)NC(O)=C(C#N)C1c1ccc(C2C(C#N)=C(O)NC(O)=C2C#N)cc1
HL-60(TB) leukemia
  TGI: 75.3 µM
UACC-62 melanoma
  TGI: > 100 µM
A498 renal
  TGI: > 100 µM
A549 NSCLC
  TGI: > 100 µM
SF-539 CNS
  TGI: > 100 µM
K-562 leukemia
  TGI: > 100 µM
MALME-3M melanoma
  TGI: > 100 µM
HOP-62 NSCLC
  TGI: > 100 µM

## OCCN(CCO)c1cccc(N(CCO)CCO)n1
HL-60(TB) leukemia
  TGI: > 100 µM
UACC-62 melanoma
  TGI: > 100 µM
A498 renal
  TGI: > 100 µM
A549 NSCLC
  TGI: > 100 µM
K-562 leukemia
  TGI: > 100 µM
HOP-62 NSCLC
  TGI: > 100 µM

## Cc1ccc(NC(=O)CCc2n[nH]c(=S)o2)cc1
HL-60(TB) leukemia
  TGI: > 100 µM
UACC-62 melanoma
  TGI: > 100 µM
A498 renal
  TGI: > 100 µM
A549 NSCLC
  TGI: > 100 µM
OVCAR-5 ovarian
  TGI: > 100 µM
SF-539 CNS
  TGI: > 100 µM
K-562 leukemia
  TGI: > 100 µM
MALME-3M melanoma
  TGI: > 100 µM
HOP-62 NSCLC
  TGI: > 100 µM

## CC(C)(C)OC(=O)NCc1cccc(N=C=S)c1
HL-60(TB) leukemia
  GI50: 28.2 µM
  TGI: 69.8 µM
UACC-62 melanoma
  GI50: 14.4 µM
  TGI: 30.6 µM
A549 NSCLC
  GI50: 28 µM
  TGI: 72.1 µM
OVCAR-5 ovarian
  GI50: 20.6 µM
  TGI: 74.9 µM
SF-539 CNS
  GI50: 21.1 µM
  TGI: 59.7 µM
MDA-MB-435
  GI50: 18.5 µM
  TGI: 63.1 µM
K-562 leukemia
  GI50: 28.4 µM
  TGI: > 88.2 µM
MALME-3M melanoma
  GI50: 14.4 µM
  TGI: 45.1 µM
HOP-62 NSCLC
  GI50: 21.8 µM
  TGI: 55.8 µM

## Cc1c2c(c(C)c3c1[nH]c1ccccc13)CN(C)CC2
HL-60(TB) leukemia
  TGI: > 100 µM
UACC-62 melanoma
  TGI: 31.9 µM
A498 renal
  TGI: 59.4 µM
A549 NSCLC
  TGI: > 100 µM
OVCAR-5 ovarian
  TGI: > 100 µM
SF-539 CNS
  TGI: 27.6 µM
K-562 leukemia
  TGI: > 100 µM
MALME-3M melanoma
  TGI: 30.3 µM
HOP-62 NSCLC
  TGI: > 100 µM
